Measured values taken from patent publication US10681909B2, “Herbicidal triazoles” (FMC Corporation, priority 2014, dated 2020).

Key:
barnyardgrass [1] = test: Test A preemergence; format: in vivo, Echinochloa crus-galli; settings: 0 to 100 scale (0 no effect, 100 complete control)
Excerpt: (§1) Seeds of plant species selected from barnyardgrass (Echinochloa crus-galli), crabgrass, large (large crabgrass, Digitaria sanguinalis), kochia (Kochia scoparia), ragweed (common ragweed, Ambrosia elatior), foxtail, giant (giant foxtail, Setaria faberii), morningglory (Ipomoea spp.), pigweed (Amaranthus retroflexus), velvetleaf (Abutilon theophrasti), ryegrass, Italian (Italian ryegrass, Lolium multiflorum), wheat (Triticum aestivum), and corn (Zea mays) were planted into a blend of loam soil and sand and treated preemergence with a directed soil spray using test chemicals formulated in a non-phytotoxic solvent mixture which included a surfactant. At the same time, plants selected from these crop and weed species and also blackgrass (Alopecurus myosuroides), and galium (catchweed bedstraw, Galium aparine), were planted in pots containing the same blend of loam soil and sand and treated with postemergence applications of test chemicals formulated in the same manner. Plants ranged in height from 2 to 10 cm and were in the one- to two-leaf stage for the postemergence treatment. […] A dash (-) response means no test result.

crabgrass, large [2] = test: Test A preemergence; format: in vivo, Digitaria sanguinalis; settings: 0 to 100 scale (0 no effect, 100 complete control)
Excerpt: as §1

foxtail, giant [3] = test: Test A preemergence; format: in vivo, Setaria faberii; settings: 0 to 100 scale (0 no effect, 100 complete control)
Excerpt: as §1

morningglory [4] = test: Test A preemergence; format: in vivo, Ipomoea spp.; settings: 0 to 100 scale (0 no effect, 100 complete control)
Excerpt: as §1

pigweed [5] = test: Test A preemergence; format: in vivo, Amaranthus retroflexus; settings: 0 to 100 scale (0 no effect, 100 complete control)
Excerpt: as §1

velvetleaf [6] = test: Test A preemergence; format: in vivo, Abutilon theophrasti; settings: 0 to 100 scale (0 no effect, 100 complete control)
Excerpt: as §1

wheat [7] = test: Test A preemergence; format: in vivo, Triticum aestivum; settings: 0 to 100 scale (0 no effect, 100 complete control)
Excerpt: as §1

corn [8] = test: Test A preemergence; format: in vivo, Zea mays; settings: 0 to 100 scale (0 no effect, 100 complete control)
Excerpt: as §1

barnyardgrass [9] = test: Test A postemergence; format: in vivo, Echinochloa crus-galli; settings: 0 to 100 scale (0 no effect, 100 complete control), approx. 10 d
Excerpt: as §1

crabgrass, large [10] = test: Test A postemergence; format: in vivo, Digitaria sanguinalis; settings: 0 to 100 scale (0 no effect, 100 complete control), approx. 10 d
Excerpt: as §1

foxtail, giant [11] = test: Test A postemergence; format: in vivo, Setaria faberii; settings: 0 to 100 scale (0 no effect, 100 complete control), approx. 10 d
Excerpt: as §1

morningglory [12] = test: Test A postemergence; format: in vivo, Ipomoea spp.; settings: 0 to 100 scale (0 no effect, 100 complete control), approx. 10 d
Excerpt: as §1

pigweed [13] = test: Test A postemergence; format: in vivo, Amaranthus retroflexus; settings: 0 to 100 scale (0 no effect, 100 complete control), approx. 10 d
Excerpt: as §1

velvetleaf [14] = test: Test A postemergence; format: in vivo, Abutilon theophrasti; settings: 0 to 100 scale (0 no effect, 100 complete control), approx. 10 d
Excerpt: as §1

wheat [15] = test: Test A postemergence; format: in vivo, Triticum aestivum; settings: 0 to 100 scale (0 no effect, 100 complete control), approx. 10 d
Excerpt: as §1

corn [16] = test: Test A postemergence; format: in vivo, Zea mays; settings: 0 to 100 scale (0 no effect, 100 complete control), approx. 10 d
Excerpt: as §1

rice = test: Test B flooded paddy test; format: in vivo, Oryza sativa; settings: 125 g ai/ha, applied to paddy water at 2-leaf stage, visual rating after 13 to 15 d, scale 0 (no effect) to 100 (complete control)
Excerpt: (§2) At time of treatment, test pots were flooded to 3 cm above the soil surface, treated by application of test compounds directly to the paddy water, and then maintained at that water depth for the duration of the test. Treated plants and controls were maintained in a greenhouse for 13 to 15 d, after which time all species were compared to controls and visually evaluated. […] A dash (-) response means no test result.

sedge, umbrella = test: Test B flooded paddy test; format: in vivo, Cyperus difformis; settings: 125 g ai/ha, applied to paddy water at 2-leaf stage, visual rating after 13 to 15 d, scale 0 (no effect) to 100 (complete control)
Excerpt: as §2

ducksalad = test: Test B flooded paddy test; format: in vivo, Heteranthera limosa; settings: 125 g ai/ha, applied to paddy water at 2-leaf stage, visual rating after 13 to 15 d, scale 0 (no effect) to 100 (complete control)
Excerpt: as §2

barnyardgrass [17] = test: Test B flooded paddy test; format: in vivo, Echinochloa crus-galli; settings: 125 g ai/ha, applied to paddy water at 2-leaf stage, visual rating after 13 to 15 d, scale 0 (no effect) to 100 (complete control)
Excerpt: as §2

kochia [18] = test: Test A preemergence; format: in vivo, Kochia scoparia; settings: 0 to 100 scale (0 no effect, 100 complete control)
Excerpt: (§3) Seeds of plant species selected from barnyardgrass (Echinochloa crus-galli), crabgrass, large (large crabgrass, Digitaria sanguinalis), kochia (Kochia scoparia), ragweed (common ragweed, Ambrosia elatior), foxtail, giant (giant foxtail, Setaria faberii), morningglory (Ipomoea spp.), pigweed (Amaranthus retroflexus), velvetleaf (Abutilon theophrasti), ryegrass, Italian (Italian ryegrass, Lolium multiflorum), wheat (Triticum aestivum), and corn (Zea mays) were planted into a blend of loam soil and sand and treated preemergence with a directed soil spray using test chemicals formulated in a non-phytotoxic solvent mixture which included a surfactant.
(§4) At the same time, plants selected from these crop and weed species and also blackgrass (Alopecurus myosuroides), and galium (catchweed bedstraw, Galium aparine), were planted in pots containing the same blend of loam soil and sand and treated with postemergence applications of test chemicals formulated in the same manner. Plants ranged in height from 2 to 10 cm and were in the one- to two-leaf stage for the postemergence treatment. Treated plants and untreated controls were maintained in a greenhouse for approximately 10 d, after which time all treated plants were compared to untreated controls and visually evaluated for injury. Plant response ratings, summarized in Table A, are based on a 0 to 100 scale where 0 is no effect and 100 is complete control. A dash (-) response means no test result.

ragweed [19] = test: Test A preemergence; format: in vivo, Ambrosia elatior; settings: 0 to 100 scale (0 no effect, 100 complete control)
Excerpt: as §3, §4

ryegrass, Italian [20] = test: Test A preemergence; format: in vivo, Lolium multiflorum; settings: 0 to 100 scale (0 no effect, 100 complete control)
Excerpt: as §3, §4

kochia [21] = test: Test A postemergence; format: in vivo, Kochia scoparia; settings: 0 to 100 scale (0 no effect, 100 complete control), approx. 10 d
Excerpt: as §3, §4

ragweed [22] = test: Test A postemergence; format: in vivo, Ambrosia elatior; settings: 0 to 100 scale (0 no effect, 100 complete control), approx. 10 d
Excerpt: as §3, §4

ryegrass, Italian [23] = test: Test A postemergence; format: in vivo, Lolium multiflorum; settings: 0 to 100 scale (0 no effect, 100 complete control), approx. 10 d
Excerpt: as §3, §4

blackgrass = test: Test A postemergence; format: in vivo, Alopecurus myosuroides; settings: 0 to 100 scale (0 no effect, 100 complete control), approx. 10 d
Excerpt: as §3, §4

galium = test: Test A postemergence; format: in vivo, Galium aparine; settings: 0 to 100 scale (0 no effect, 100 complete control), approx. 10 d
Excerpt: as §3, §4

Compound: CCn1nc(-c2ccc(F)cc2)nc1Cc1ccnc(C(F)(F)F)c1 [Compound 18]
- Plant response rating, Barnyardgrass (barnyardgrass [1]; 125 g ai/ha): 10
- Plant response rating, Barnyardgrass (barnyardgrass [1]; 500 g ai/ha, approx. 10 d): 60
- Plant response rating, Crabgrass, Large (crabgrass, large [2]; 125 g ai/ha): 90
- Plant response rating, Crabgrass, Large (crabgrass, large [2]; 500 g ai/ha, approx. 10 d): 100
- Plant response rating, Foxtail, Giant (foxtail, giant [3]; 125 g ai/ha): 90
- Plant response rating, Foxtail, Giant (foxtail, giant [3]; 500 g ai/ha, approx. 10 d): 100
- Plant response rating, Morningglory (morningglory [4]; 125 g ai/ha): 10
- Plant response rating, Morningglory (morningglory [4]; 500 g ai/ha, approx. 10 d): 40
- Plant response rating, Pigweed (pigweed [5]; 125 g ai/ha): 100
- Plant response rating, Pigweed (pigweed [5]; 500 g ai/ha, approx. 10 d): 100
- Plant response rating, Velvetleaf (velvetleaf [6]; 125 g ai/ha): 10
- Plant response rating, Velvetleaf (velvetleaf [6]; 500 g ai/ha, approx. 10 d): 70
- Plant response rating, Wheat (wheat [7]; 125 g ai/ha): 0
- Plant response rating, Wheat (wheat [7]; 500 g ai/ha, approx. 10 d): 0
- Plant response rating, Corn (corn [8]; 125 g ai/ha): 0
- Plant response rating, Corn (corn [8]; 500 g ai/ha, approx. 10 d): 0
- Plant response rating, Barnyardgrass (barnyardgrass [9]; 125 g ai/ha): 30
- Plant response rating, Barnyardgrass (barnyardgrass [9]; 500 g ai/ha): 60
- Plant response rating, Crabgrass, Large (crabgrass, large [10]; 125 g ai/ha): 60
- Plant response rating, Crabgrass, Large (crabgrass, large [10]; 500 g ai/ha): 90
- Plant response rating, Foxtail, Giant (foxtail, giant [11]; 125 g ai/ha): 50
- Plant response rating, Foxtail, Giant (foxtail, giant [11]; 500 g ai/ha): 90
- Plant response rating, Morningglory (morningglory [12]; 125 g ai/ha): 50
- Plant response rating, Morningglory (morningglory [12]; 500 g ai/ha): 100
- Plant response rating, Pigweed (pigweed [13]; 125 g ai/ha): 100
- Plant response rating, Pigweed (pigweed [13]; 500 g ai/ha): 100
- Plant response rating, Velvetleaf (velvetleaf [14]; 125 g ai/ha): 30
- Plant response rating, Velvetleaf (velvetleaf [14]; 500 g ai/ha): 80
- Plant response rating, Wheat (wheat [15]; 125 g ai/ha): 20
- Plant response rating, Wheat (wheat [15]; 500 g ai/ha): 30
- Plant response rating, Corn (corn [16]; 125 g ai/ha): 30
- Plant response rating, Corn (corn [16]; 500 g ai/ha): 40
- Plant response rating, Rice, Flood (rice): 0
- Plant response rating, Sedge, Umbrella, Flood (sedge, umbrella): 70
- Plant response rating, Ducksalad, Flood (ducksalad): 70
- Plant response rating, Barnyardgrass, Flood (barnyardgrass [17]): 0

Compound: Cc1nc(-c2ccc(F)cc2)nn1Cc1ccnc(C(F)(F)F)c1 [Compound 38]
- Plant response rating, Barnyardgrass (barnyardgrass [1]; 31 g ai/ha): 0
- Plant response rating, Barnyardgrass (barnyardgrass [1]; 125 g ai/ha): 80
- Plant response rating, Kochia (kochia [18]; 31 g ai/ha): 30
- Plant response rating, Kochia (kochia [18]; 125 g ai/ha): 100
- Plant response rating, Ragweed (ragweed [19]; 31 g ai/ha): 0
- Plant response rating, Ragweed (ragweed [19]; 125 g ai/ha): 20
- Plant response rating, Foxtail, Giant (foxtail, giant [3]; 31 g ai/ha): 20
- Plant response rating, Foxtail, Giant (foxtail, giant [3]; 125 g ai/ha): 100
- Plant response rating, Pigweed (pigweed [5]; 31 g ai/ha): 90
- Plant response rating, Pigweed (pigweed [5]; 125 g ai/ha): 100
- Plant response rating, Ryegrass, Italian (ryegrass, Italian [20]; 31 g ai/ha): 0
- Plant response rating, Ryegrass, Italian (ryegrass, Italian [20]; 125 g ai/ha): 10
- Plant response rating, Barnyardgrass (barnyardgrass [9]; 31 g ai/ha): 0
- Plant response rating, Barnyardgrass (barnyardgrass [9]; 125 g ai/ha): 20
- Plant response rating, Kochia (kochia [21]; 31 g ai/ha): 70
- Plant response rating, Kochia (kochia [21]; 125 g ai/ha): 90
- Plant response rating, Ragweed (ragweed [22]; 31 g ai/ha): 0
- Plant response rating, Ragweed (ragweed [22]; 125 g ai/ha): 30
- Plant response rating, Foxtail, Giant (foxtail, giant [11]; 31 g ai/ha): 20
- Plant response rating, Foxtail, Giant (foxtail, giant [11]; 125 g ai/ha): 80
- Plant response rating, Pigweed (pigweed [13]; 31 g ai/ha): 80
- Plant response rating, Pigweed (pigweed [13]; 125 g ai/ha): 90
- Plant response rating, Ryegrass, Italian (ryegrass, Italian [23]; 31 g ai/ha): 0
- Plant response rating, Ryegrass, Italian (ryegrass, Italian [23]; 125 g ai/ha): 0
- Plant response rating, Wheat (wheat [15]; 31 g ai/ha): 0
- Plant response rating, Wheat (wheat [15]; 125 g ai/ha): 10
- Plant response rating, Corn (corn [16]; 31 g ai/ha): 10
- Plant response rating, Corn (corn [16]; 125 g ai/ha): 30
- Plant response rating, Blackgrass (blackgrass; 31 g ai/ha): 10
- Plant response rating, Blackgrass (blackgrass; 125 g ai/ha): 40
- Plant response rating, Galium (galium; 31 g ai/ha): 30
- Plant response rating, Galium (galium; 125 g ai/ha): 90
